From ChEMBL document CHEMBL4630903, “Data for DCP probe BI-2540” (2021)
Calls of active or inactive are those of the source. The calls are words filed in the database; no cut-off is given here.

Tests used:
[1] = HIV1 reverse transcriptase picogreen fluorescence assay (enzymatic); set-up: species or system Human immunodeficiency virus 1
[2] = molecular target: Neuronal acetylcholine receptor; alpha4/beta2 (Homo sapiens) (UniProt P17787+P43681); test: N_NEURO_A4B2 Eurofins SafetyScreen44 (BI); type: protein-complex assay; settings: filed as agonist, Compound concentration 10.0 uM
[3] = molecular target: Glutamate receptor ionotropic, NMDA 2A (Rattus norvegicus) (UniProt Q00959); test: NMDA/R Eurofins SafetyScreen44 (BI); settings: Compound concentration 10.0 uM
[4] = molecular target: Mu-type opioid receptor (Homo sapiens) (UniProt P35372); test: MU/H Eurofins SafetyScreen44 (BI); settings: Compound concentration 10.0 uM
[5] = molecular target: Cannabinoid receptor 2 (Homo sapiens) (UniProt P34972); test: CB2/PERIPH/H Eurofins SafetyScreen44 (BI); settings: Compound concentration 10.0 uM
[6] = molecular target: Alpha-1A adrenergic receptor (Homo sapiens) (UniProt P35348); test: ALPHA1AH_ANTAG Eurofins SafetyScreen44 (BI); settings: filed as antagonist, Compound concentration 10.0 uM
[7] = molecular target: Gamma-aminobutyric acid receptor subunit alpha-1 (Rattus norvegicus) (UniProt P62813); test: BZD/CENTR/R Eurofins SafetyScreen44 (BI); settings: Compound concentration 10.0 uM
[8] = molecular target: Potassium voltage-gated channel subfamily V member 1 (Rattus norvegicus) (UniProt P97557); test: K+/VOLT/RA Eurofins SafetyScreen44 (BI); settings: Compound concentration 10.0 uM
[9] = molecular target: Tyrosine-protein kinase Lck (Homo sapiens) (UniProt P06239); test: LCK_CE Eurofins SafetyScreen44 (BI); settings: Compound concentration 10.0 uM
[10] = molecular target: Muscarinic acetylcholine receptor M3 (Homo sapiens) (UniProt P20309); test: M3/H Eurofins SafetyScreen44 (BI); settings: Compound concentration 10.0 uM
[11] = molecular target: Beta-2 adrenergic receptor (Homo sapiens) (UniProt P07550); test: BETA2/HUM Eurofins SafetyScreen44 (BI); settings: filed as antagonist, Compound concentration 10.0 uM
[12] = molecular target: Kappa-type opioid receptor (Homo sapiens) (UniProt P41145); test: KAPPA(KOP)_HU Eurofins SafetyScreen44 (BI); settings: Compound concentration 10.0 uM
[13] = molecular target: 3',5'-cyclic-AMP phosphodiesterase 4D (Homo sapiens) (UniProt Q08499); test: PDE4D2 Eurofins SafetyScreen44 (BI); settings: Compound concentration 10.0 uM
[14] = molecular target: hERG (KCNH2) (Homo sapiens, UniProt Q12809); test: HERG_DOFETILIDE Eurofins SafetyScreen44 (BI); set-up: mode of action inhibitor; settings: probe [3H] dofetilide, compound concentration 10 uM, read-out: % Ctrl
[15] = molecular target: Androgen receptor (Homo sapiens) (UniProt P10275); test: ANDROGEN/H Eurofins SafetyScreen44 (BI); settings: Compound concentration 10.0 uM
[16] = molecular target: D(2) dopamine receptor (Homo sapiens) (UniProt P14416); test: D2SH_AGON Eurofins SafetyScreen44 (BI); settings: filed as agonist, Compound concentration 10.0 uM
[17] = molecular target: cGMP-inhibited 3',5'-cyclic phosphodiesterase 3A (Homo sapiens) (UniProt Q14432); test: PDE3A Eurofins SafetyScreen44 (BI); settings: Compound concentration 10.0 uM
[18] = molecular target: Angiotensin-converting enzyme (Homo sapiens) (UniProt P12821); test: ACE(HU_AMTCH400) Eurofins SafetyScreen44 (BI); settings: Compound concentration 10.0 uM
[19] = molecular target: Vasopressin V1a receptor (Homo sapiens) (UniProt P37288); test: V1A/HUM Eurofins SafetyScreen44 (BI); settings: Compound concentration 10.0 uM
[20] = molecular target: Sodium-dependent serotonin transporter (Homo sapiens) (UniProt P31645); test: SLC6A4/H Eurofins SafetyScreen44 (BI); settings: filed as antagonist, Compound concentration 10.0 uM
[21] = molecular target: 5-hydroxytryptamine receptor 3A (Homo sapiens) (UniProt P46098); test: 5HT3/H Eurofins SafetyScreen44 (BI); settings: Compound concentration 10.0 uM
[22] = molecular target: Glucocorticoid receptor (Homo sapiens) (UniProt P04150); test: GCORTICOID/H Eurofins SafetyScreen44 (BI); settings: Compound concentration 10.0 uM
[23] = molecular target: Adenosine receptor A2a (Homo sapiens) (UniProt P29274); test: A2A/H Eurofins SafetyScreen44 (BI); settings: filed as antagonist, Compound concentration 10.0 uM
[24] = molecular target: 5-hydroxytryptamine receptor 2A (Homo sapiens) (UniProt P28223); test: 5HT2AH_AGON Eurofins SafetyScreen44 (BI); settings: filed as agonist, Compound concentration 10.0 uM
[25] = HIV viral replication assay (ELISA); type: cell-based; settings: Human immunodeficiency virus 1, C8166
[26] = molecular target: MAO-A (Rattus norvegicus, UniProt P21396); test: MAO-A_ANTAG Eurofins SafetyScreen44 (BI); set-up: mode of action antagonist; scale not given: the % may be the effect or the level left; settings: compound concentration 10 uM, read-out: % Ctrl
[27] = molecular target: Sodium-dependent noradrenaline transporter (Homo sapiens) (UniProt P23975); test: NEUP/H Eurofins SafetyScreen44 (BI); settings: Compound concentration 10.0 uM
[28] = molecular target: Prostaglandin G/H synthase 2 (Homo sapiens) (UniProt P35354); test: COX-2 Eurofins SafetyScreen44 (BI); settings: Compound concentration 10.0 uM
[29] = molecular target: Histamine H2 receptor (Homo sapiens) (UniProt P25021); test: H2/APT/HS Eurofins SafetyScreen44 (BI); settings: filed as antagonist, Compound concentration 10.0 uM
[30] = molecular target: Endothelin-1 receptor (Homo sapiens) (UniProt P25101); test: ETA/H Eurofins SafetyScreen44 (BI); settings: Compound concentration 10.0 uM
[31] = HIV 1 luciferase assay; type: cell-based, Human immunodeficiency virus 1; settings: c8166
[32] = molecular target: Beta-1 adrenergic receptor (Homo sapiens) (UniProt P08588); test: BETA1/HUM Eurofins SafetyScreen44 (BI); settings: Compound concentration 10.0 uM
[33] = molecular target: D(1A) dopamine receptor (Homo sapiens) (UniProt P21728); test: D1/H Eurofins SafetyScreen44 (BI); settings: filed as antagonist, Compound concentration 10.0 uM
[34] = molecular target: Prostaglandin G/H synthase 1 (Homo sapiens) (UniProt P23219); test: COX-1 Eurofins SafetyScreen44 (BI); settings: Compound concentration 10.0 uM
[35] = molecular target: 5-hydroxytryptamine receptor 2B (Homo sapiens) (UniProt P41595); test: 5HT2B/H AG Eurofins SafetyScreen44 (BI); settings: filed as agonist, Compound concentration 10.0 uM
[36] = molecular target: Muscarinic acetylcholine receptor M2 (Homo sapiens) (UniProt P08172); test: M2/H Eurofins SafetyScreen44 (BI); settings: filed as antagonist, Compound concentration 10.0 uM
[37] = molecular target: Alpha-2A adrenergic receptor (Homo sapiens) (UniProt P08913); test: ALPHA2A/HU Eurofins SafetyScreen44 (BI); settings: Compound concentration 10.0 uM
[38] = molecular target: Delta-type opioid receptor (Homo sapiens) (UniProt P41143); test: DELTA2/H Eurofins SafetyScreen44 (BI); settings: Compound concentration 10.0 uM
[39] = molecular target: Cannabinoid receptor 1 (Homo sapiens) (UniProt P21554); test: CB1(HU)_AGON Eurofins SafetyScreen44 (BI); settings: filed as agonist; Compound concentration 10.0 uM
[40] = molecular target: 5-hydroxytryptamine receptor 1A (Homo sapiens) (UniProt P08908); test: 5HT1A/H Eurofins SafetyScreen44 (BI); settings: Compound concentration 10.0 uM
[41] = molecular target: 5-hydroxytryptamine receptor 1B (Homo sapiens) (UniProt P28222); test: 5HT1B(H) Eurofins SafetyScreen44 (BI); settings: filed as antagonist, Compound concentration 10.0 uM
[42] = molecular target: Cholecystokinin receptor type A (Homo sapiens) (UniProt P32238); test: CCKA/H Eurofins SafetyScreen44 (BI); settings: Compound concentration 10.0 uM
[43] = molecular target: Histamine H1 receptor (Homo sapiens) (UniProt P35367); test: H1/PYRIL/HS Eurofins SafetyScreen44 (BI); settings: Compound concentration 10.0 uM
[44] = molecular target: L-type Ca2+ channel (dihydropyridine site), Cav1.2 alpha-1C (Rattus norvegicus, UniProt P22002); test: CA+/DHPSI/R Eurofins SafetyScreen44 (BI); set-up: mode of action inhibitor; settings: rat brain, probe [3H](+)PN200-110, compound concentration 10 uM, read-out: % Ctrl
[45] = molecular target: Muscarinic acetylcholine receptor M1 (Homo sapiens) (UniProt P11229); test: M1/H Eurofins SafetyScreen44 (BI); settings: Compound concentration 10.0 uM
[46] = molecular target: Sodium-dependent dopamine transporter (Homo sapiens) (UniProt Q01959); test: DATRANS/HUM Eurofins SafetyScreen44 (BI); settings: Compound concentration 10.0 uM

Chain of D(2) dopamine receptor (Homo sapiens) (P14416 whole entry): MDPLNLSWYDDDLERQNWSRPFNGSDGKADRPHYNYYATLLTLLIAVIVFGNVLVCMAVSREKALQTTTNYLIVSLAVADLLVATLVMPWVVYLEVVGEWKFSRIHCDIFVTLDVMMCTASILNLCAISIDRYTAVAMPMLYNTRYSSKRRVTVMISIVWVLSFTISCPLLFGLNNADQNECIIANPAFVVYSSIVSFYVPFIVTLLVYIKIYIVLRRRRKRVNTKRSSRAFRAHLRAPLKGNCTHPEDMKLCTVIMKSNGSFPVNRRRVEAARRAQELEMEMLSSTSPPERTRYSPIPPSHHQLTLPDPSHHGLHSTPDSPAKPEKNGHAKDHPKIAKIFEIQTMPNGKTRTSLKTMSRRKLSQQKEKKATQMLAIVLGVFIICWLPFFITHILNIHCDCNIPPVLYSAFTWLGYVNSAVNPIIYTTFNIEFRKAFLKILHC
Chain of D(1A) dopamine receptor (Homo sapiens) (P21728 whole entry): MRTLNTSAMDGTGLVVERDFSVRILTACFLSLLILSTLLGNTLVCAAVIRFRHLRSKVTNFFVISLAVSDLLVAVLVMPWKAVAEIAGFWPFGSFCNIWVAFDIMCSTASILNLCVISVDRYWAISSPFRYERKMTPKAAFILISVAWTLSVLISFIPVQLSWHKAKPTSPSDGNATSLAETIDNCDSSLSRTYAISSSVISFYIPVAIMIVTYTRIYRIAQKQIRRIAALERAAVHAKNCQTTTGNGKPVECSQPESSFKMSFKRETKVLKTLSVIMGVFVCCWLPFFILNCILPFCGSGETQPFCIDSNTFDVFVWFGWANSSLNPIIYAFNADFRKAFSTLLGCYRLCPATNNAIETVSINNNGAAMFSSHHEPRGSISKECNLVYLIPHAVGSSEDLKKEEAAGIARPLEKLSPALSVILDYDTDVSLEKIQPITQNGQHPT
Chain of Muscarinic acetylcholine receptor M1 (Homo sapiens) (P11229 whole entry): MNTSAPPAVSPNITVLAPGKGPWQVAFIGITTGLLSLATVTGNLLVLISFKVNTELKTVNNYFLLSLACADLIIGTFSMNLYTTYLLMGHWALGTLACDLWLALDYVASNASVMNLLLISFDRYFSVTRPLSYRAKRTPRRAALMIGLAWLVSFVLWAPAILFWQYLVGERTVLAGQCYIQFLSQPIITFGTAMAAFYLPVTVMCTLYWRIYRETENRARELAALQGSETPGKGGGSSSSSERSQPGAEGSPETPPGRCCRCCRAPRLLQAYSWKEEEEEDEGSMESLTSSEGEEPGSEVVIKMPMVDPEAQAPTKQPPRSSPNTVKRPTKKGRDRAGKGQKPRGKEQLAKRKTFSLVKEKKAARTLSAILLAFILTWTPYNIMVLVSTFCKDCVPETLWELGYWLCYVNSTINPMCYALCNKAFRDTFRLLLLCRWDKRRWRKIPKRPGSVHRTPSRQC
Chain of Glutamate receptor ionotropic, NMDA 2A (Rattus norvegicus) (Q00959 23-1464 limits assumed): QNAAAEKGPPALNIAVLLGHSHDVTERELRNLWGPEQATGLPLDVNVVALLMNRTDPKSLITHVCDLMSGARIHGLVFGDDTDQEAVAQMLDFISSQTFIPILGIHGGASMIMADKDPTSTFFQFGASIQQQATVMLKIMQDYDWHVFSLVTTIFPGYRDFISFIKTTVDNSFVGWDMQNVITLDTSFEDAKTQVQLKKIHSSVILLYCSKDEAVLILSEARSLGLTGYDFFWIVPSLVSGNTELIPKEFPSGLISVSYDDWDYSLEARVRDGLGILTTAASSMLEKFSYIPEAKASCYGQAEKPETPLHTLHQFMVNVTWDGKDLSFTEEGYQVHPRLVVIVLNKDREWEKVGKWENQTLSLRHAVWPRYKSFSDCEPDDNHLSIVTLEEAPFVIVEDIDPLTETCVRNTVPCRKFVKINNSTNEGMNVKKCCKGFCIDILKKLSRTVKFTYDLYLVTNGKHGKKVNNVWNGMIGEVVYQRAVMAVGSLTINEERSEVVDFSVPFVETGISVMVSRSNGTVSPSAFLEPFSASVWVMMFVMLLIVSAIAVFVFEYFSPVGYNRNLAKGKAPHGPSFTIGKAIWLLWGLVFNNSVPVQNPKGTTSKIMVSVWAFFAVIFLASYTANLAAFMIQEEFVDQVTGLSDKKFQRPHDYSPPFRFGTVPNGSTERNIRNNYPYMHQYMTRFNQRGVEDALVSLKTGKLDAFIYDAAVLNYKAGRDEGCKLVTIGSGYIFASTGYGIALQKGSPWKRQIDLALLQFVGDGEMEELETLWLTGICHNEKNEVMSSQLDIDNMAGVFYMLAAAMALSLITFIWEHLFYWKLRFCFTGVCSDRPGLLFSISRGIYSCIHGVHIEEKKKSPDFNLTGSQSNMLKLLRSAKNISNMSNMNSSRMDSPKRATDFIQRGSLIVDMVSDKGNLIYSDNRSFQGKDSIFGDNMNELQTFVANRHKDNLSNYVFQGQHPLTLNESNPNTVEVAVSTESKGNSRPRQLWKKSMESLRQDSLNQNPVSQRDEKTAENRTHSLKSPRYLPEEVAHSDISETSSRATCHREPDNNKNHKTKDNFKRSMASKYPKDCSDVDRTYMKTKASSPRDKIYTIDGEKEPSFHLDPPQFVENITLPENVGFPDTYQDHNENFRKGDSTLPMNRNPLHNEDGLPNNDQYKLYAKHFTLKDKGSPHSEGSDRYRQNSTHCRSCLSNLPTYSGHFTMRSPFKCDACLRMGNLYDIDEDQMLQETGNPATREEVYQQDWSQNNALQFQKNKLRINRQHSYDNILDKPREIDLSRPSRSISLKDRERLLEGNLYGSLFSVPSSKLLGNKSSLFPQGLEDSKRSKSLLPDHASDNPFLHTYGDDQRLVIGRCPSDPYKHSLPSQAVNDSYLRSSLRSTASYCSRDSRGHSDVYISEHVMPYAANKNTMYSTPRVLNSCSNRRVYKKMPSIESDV
Chain of Beta-1 adrenergic receptor (Homo sapiens) (P08588 whole entry, looked up): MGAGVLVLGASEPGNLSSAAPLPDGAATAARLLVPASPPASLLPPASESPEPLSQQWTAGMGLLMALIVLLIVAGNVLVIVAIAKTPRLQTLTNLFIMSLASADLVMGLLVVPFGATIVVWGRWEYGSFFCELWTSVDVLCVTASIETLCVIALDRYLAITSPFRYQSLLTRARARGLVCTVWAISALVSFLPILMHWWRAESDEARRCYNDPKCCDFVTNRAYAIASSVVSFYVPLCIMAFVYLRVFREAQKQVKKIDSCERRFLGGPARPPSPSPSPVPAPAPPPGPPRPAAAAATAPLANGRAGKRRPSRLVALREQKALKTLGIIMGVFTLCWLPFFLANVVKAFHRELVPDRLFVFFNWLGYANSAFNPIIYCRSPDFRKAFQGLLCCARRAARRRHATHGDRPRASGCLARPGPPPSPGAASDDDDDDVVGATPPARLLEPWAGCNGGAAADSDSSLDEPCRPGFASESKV
Chain of Cholecystokinin receptor type A (Homo sapiens) (P32238 whole entry): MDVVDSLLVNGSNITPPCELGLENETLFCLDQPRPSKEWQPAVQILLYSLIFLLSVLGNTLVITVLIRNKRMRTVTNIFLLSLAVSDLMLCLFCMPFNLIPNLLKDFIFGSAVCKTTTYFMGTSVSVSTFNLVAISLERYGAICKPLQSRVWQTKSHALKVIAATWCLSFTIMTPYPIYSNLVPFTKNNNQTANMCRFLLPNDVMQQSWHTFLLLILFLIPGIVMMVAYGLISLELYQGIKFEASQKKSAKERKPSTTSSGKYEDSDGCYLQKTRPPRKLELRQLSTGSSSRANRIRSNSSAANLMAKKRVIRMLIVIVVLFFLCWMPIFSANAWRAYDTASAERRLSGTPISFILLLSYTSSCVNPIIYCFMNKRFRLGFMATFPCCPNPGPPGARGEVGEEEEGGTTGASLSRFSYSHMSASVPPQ
Chain of hERG (KCNH2) (Q12809 whole entry): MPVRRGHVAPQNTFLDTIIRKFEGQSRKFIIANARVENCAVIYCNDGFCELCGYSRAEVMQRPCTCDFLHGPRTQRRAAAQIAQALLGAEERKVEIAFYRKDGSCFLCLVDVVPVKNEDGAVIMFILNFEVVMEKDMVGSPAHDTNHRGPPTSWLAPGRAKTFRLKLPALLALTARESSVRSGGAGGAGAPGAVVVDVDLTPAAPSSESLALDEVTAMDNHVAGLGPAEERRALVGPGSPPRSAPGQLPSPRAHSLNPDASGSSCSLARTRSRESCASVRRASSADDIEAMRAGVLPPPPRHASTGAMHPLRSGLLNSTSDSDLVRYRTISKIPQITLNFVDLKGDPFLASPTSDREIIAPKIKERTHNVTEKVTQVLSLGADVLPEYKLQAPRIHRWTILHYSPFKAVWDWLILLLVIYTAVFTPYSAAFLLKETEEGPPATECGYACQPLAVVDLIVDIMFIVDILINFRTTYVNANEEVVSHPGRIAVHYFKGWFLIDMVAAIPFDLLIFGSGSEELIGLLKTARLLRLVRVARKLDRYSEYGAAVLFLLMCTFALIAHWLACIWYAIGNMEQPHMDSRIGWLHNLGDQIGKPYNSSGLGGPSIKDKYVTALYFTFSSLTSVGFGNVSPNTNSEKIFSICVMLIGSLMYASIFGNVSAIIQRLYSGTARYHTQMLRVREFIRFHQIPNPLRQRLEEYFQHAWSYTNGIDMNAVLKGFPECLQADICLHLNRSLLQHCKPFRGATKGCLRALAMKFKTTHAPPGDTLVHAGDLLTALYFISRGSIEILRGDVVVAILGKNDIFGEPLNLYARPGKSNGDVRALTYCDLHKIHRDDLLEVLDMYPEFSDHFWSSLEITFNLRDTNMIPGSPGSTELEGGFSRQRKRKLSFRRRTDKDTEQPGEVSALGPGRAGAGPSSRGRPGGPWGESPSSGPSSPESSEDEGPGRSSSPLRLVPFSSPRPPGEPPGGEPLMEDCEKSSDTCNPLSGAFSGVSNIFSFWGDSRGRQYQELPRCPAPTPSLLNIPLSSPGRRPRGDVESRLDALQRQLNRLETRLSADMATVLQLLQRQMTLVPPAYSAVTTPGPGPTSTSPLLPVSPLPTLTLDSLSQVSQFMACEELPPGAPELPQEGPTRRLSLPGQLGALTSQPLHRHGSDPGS

SMILES: CC(C)(C#Cc1ccc(NC(=O)COc2ccccc2C(=O)c2ccccc2)c(Cl)c1)C(=O)O [BI 2439]
- IC50 [1]: 5050 nM (not active)

SMILES: Cc1c(NC(=O)COc2ccc(Cl)cc2C(=O)c2cc(F)cc(C(F)(F)F)c2)ccc(C(=O)O)c1F [BI 2540]
- residual activity [2]: 102%
- residual activity [3]: 87%
- residual activity [4]: 99%
- residual activity [5]: 100%
- residual activity [6]: 97%
- residual activity [7]: 127%
- residual activity [8]: 103%
- residual activity [9]: 88%
- residual activity [10]: 101%
- residual activity [11]: 96%
- residual activity [12]: 103%
- residual activity [13]: 93%
- activity at 10 µM [14]: 94% (not active)
- residual activity [15]: 105%
- residual activity [16]: 96%
- residual activity [17]: 103%
- residual activity [18]: 110%
- residual activity [19]: 107%
- residual activity [20]: 110%
- residual activity [21]: 100%
- residual activity [22]: 103%
- residual activity [23]: 82%
- residual activity [24]: 110%
- IC50 [25]: 0.76 nM (active)
- activity at 10 µM [26]: 104% (not active)
- residual activity [27]: 98%
- residual activity [28]: 84%
- residual activity [29]: 111%
- residual activity [30]: 113%
- IC50 [31]: 2.6 nM (active)
- residual activity [32]: 101%
- residual activity [33]: 100%
- residual activity [34]: 110%
- residual activity [35]: 103%
- residual activity [36]: 111%
- IC50 [1]: 12 nM (active)
- residual activity [37]: 79%
- residual activity [38]: 78%
- residual activity [39]: 125%
- residual activity [40]: 94%
- residual activity [41]: 90%
- residual activity [42]: 108%
- residual activity [43]: 96%
- activity at 10 µM [44]: 96% (not active)
- residual activity [45]: 113%
- residual activity [46]: 92%
